Paper PMC6137095 (Scientific Reports, 2018)

Assays:
Type in all cases: binding
mSin3B PAH1 domain [1] = biological target: T1, mSin3B PAH1 domain (Mus musculus, UniProt Q62141); test: WaterLOGSY NMR titration; STD and 1H-15N HSQC
T1 construct: gene Sin3b; PAH1 domain, a.a; 28–107 with a Met at the N-terminus (GST fusion for WaterLOGSY/STD)
T1 sequence (Q62141 28-107): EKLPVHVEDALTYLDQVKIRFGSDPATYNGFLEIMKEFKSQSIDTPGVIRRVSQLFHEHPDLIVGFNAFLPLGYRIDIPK

mSin3B PAH1 domain [2] = biological target: T1, mSin3B PAH1 domain; test: 1H-15N HSQC, STD and WaterLOGSY NMR (weak/moderate)
mSin3B PAH1 domain [3] = biological target: T1, mSin3B PAH1 domain; test: STD, WaterLOGSY and HSQC NMR
mSin3B PAH1 domain [4] = biological target: T1, mSin3B PAH1 domain; test: 1H-15N HSQC titration, STD and WaterLOGSY NMR

CN(C)CCCN1c2ccccc2Sc2ccc(Cl)cc21 [YN29, chlorpromazine]
Kd (mSin3B PAH1 domain [1]): 15 ± 4.2 µM

CN(C)CC/C=C1/c2ccccc2Sc2ccc(Cl)cc21 [YN28, chlorprothixene]
Kd (mSin3B PAH1 domain [1]): 35 ± 11 µM

CNCCCC12CCC(c3ccccc31)c1ccccc12 [YN40]
1H-15N HSQC, STD and WaterLOGSY NMR (weak/moderate) (mSin3B PAH1 domain [2]): only YN39, YN40, and YN42 showed clear signals in the STD spectra

Fc1ccc([C@@H]2CCNC[C@H]2COc2ccc3c(c2)OCO3)cc1 [paroxetine]
STD, WaterLOGSY and HSQC NMR (mSin3B PAH1 domain [3]): STD, WaterLOGSY, and HSQC experiments showed that paroxetine binds strongly to the PAH1 domain of mSin3B

COc1cc(CNC(=O)CCCC/C=C/C(C)C)ccc1O [YN39]
1H-15N HSQC, STD and WaterLOGSY NMR (weak/moderate) (mSin3B PAH1 domain [2]): only YN39, YN40, and YN42 showed clear signals in the STD spectra

Clc1ccc2c(c1)C(N1CCNCC1)=Nc1ccccc1O2 [YN42]
1H-15N HSQC, STD and WaterLOGSY NMR (weak/moderate) (mSin3B PAH1 domain [2]): only YN39, YN40, and YN42 showed clear signals in the STD spectra

C#CC(C)(O)CCc1cc(C)c(OC)cc1C (stereo not shown) [YN3]
1H-15N HSQC titration, STD and WaterLOGSY NMR (mSin3B PAH1 domain [4]): four compounds YN29, YN31, YN3, and YN28, have a strong affinity for the mSin3B PAH1 domain
